Laboratory results taken from patent publication US20090191173A1, “Induction Of Neurogenesis And Stem Cell Therapy In Combination With Copolymer 1” (priority 2004, published 2009).

Assays:
[1] = tested on: microglia; assay: TNF-α and IGF-I expression in treated microglia (RT-PCR, immunocytochemistry); format: cell-based, mouse; details: IFN-γ 20 ng/ml
Description: (vi) Immunocytochemistry. Cover slips from co-cultures of NPCs and mouse microglia were washed with PBS, fixed as described above, treated with a permeabilization/blocking solution containing 10% FCS, 2% bovine serum albumin, 1% glycine, and 0.1% Triton X-100 (Sigma-Aldrich, Rehovot) and stained with a combination of the mouse or rabbit anti-tubulin β-III-isoform C-terminus antibodies (β-III-tubulin; 1:500), rabbit anti-NG2 chondroitin sulfate proteoglycan (NG2; 1:500), mouse anti-RIP (RIP; 1:2000), mouse anti-galactocerebroside (GalC; 1:250), mouse anti-glutamic acid decarboxylase 67 (GAD; 1:1000), mouse anti-nestin (Nestin; 1:1000), rat anti-myelin basic protein (MBP; 1:300) (all from Chemicon, Temecula, Calif.), goat anti-double cortin (DCX; 1:400, Santa Cruz Biotechnology, Santa Cruz, Calif.) and mouse anti-glial fibrillary acidic protein (GFAP; 1:100, Sigma-Aldrich, St. Louis). […] Expression of IGF-1 was detected by goat anti-IGF-1 (1:20, R&D Systems). […]
We assayed the expression of specific mRNAs using semi-quantitative reverse transcription PCR (RT-PCR) with selected gene-specific primer pairs, using OLIGO v6.4 (Molecular Biology Insights, Cascade, Colo.).
The RT-PCR reactions were carried out using 1 μg of cDNA, […] of each primer, and ReadyMix PCR Master Mix (ABgene, Epsom, UK) in 30-μl reactions. […] Signals were quantified using a Gel-Pro analyzer 3.1 (Media Cybernetics).

[2] = tested on: neural progenitor cells (NPCs); assay: Neurogenesis from NPCs co-cultured with microglia pre-activated by aggregated Aβ and cytokines; format: cell-based, mouse; details: 10 days; Aβ 5 μM 48 h, cytokines 10 ng/ml
Procedure: (xx) Reagents. Recombinant mouse IFN-γ and IL-4 (both containing endotoxin at a concentration below 0.1 ng/μg cytokine) were obtained from R&D Systems (Minneapolis, Minn.). β-amyloid peptides [amyloid protein fragment 1-40 and 1-42 (Aβ1-40/1-42)] were purchased from Sigma-Aldrich, St. Louis, Mo. The Aβ peptides were dissolved in endotoxin-free water, and Aβ aggregates were formed by incubation of Aβ, as described (Ishii et al., 2000). (xxv) Neural progenitor cell culture. Coronal sections (2 mm thick) of tissue containing the subventricular zone of the lateral ventricle were obtained from the brains of adult C57B1/6J mice. […] After centrifugation at 110×g for 15 min at room temperature, the tissue was mechanically dissociated by pipette trituration. Cells obtained from single-cell suspensions were plated (3500 cells/cm^2) in 75-cm^2 Falcon tissue-culture flasks (BD Biosciences, San Diego, Calif.), in NPC-culturing medium [Dulbecco's modified Eagles's medium (DMEM)/F12 medium (Gibco/Invitrogen, Carlsbad, Calif.) containing 2 mM L-glutamine, 0.6% glucose, 9.6 μg/ml putrescine, 6.3 ng/ml progesterone, 5.2 ng/ml sodium selenite, 0.02 mg/ml insulin, 0.1 mg/ml transferrin, 2 μg/ml heparin (all from Sigma-Aldrich, Rehovot, Israel), fibroblast growth factor-2 (human recombinant, 20 ng/ml), and epidermal growth factor (human recombinant, 20 ng/ml; both from Peprotech, Rocky Hill, N.J.)]. Spheres were passaged every 4-6 days and replated as single cells. Green fluorescent protein (GFP)-expressing NPCs were obtained as previously described (Pluchino et al., 2003). (xxvi) Primary microglial culture. Brains from neonatal (P0-P1) C57B1/6J mice were stripped of their meninges and minced with scissors under a dissecting microscope (Zeiss, Stemi DV4, Germany) in Leibovitz-15 medium (Biological Industries, Kibbutz Beit Ha-Emek, Israel). […] The cell suspension was washed in culture medium for glial cells [DMEM supplemented with 10% fetal calf serum (FCS; Sigma-Aldrich, Rehovot), L-glutamine (1 mM), sodium pyruvate (1 mM), penicillin (100 U/ml), and streptomycin ([…])] and cultured at 37° C./5% CO2 in 75-cm^2 Falcon tissue-culture flasks (BD Biosciences) coated with poly-D-lysine (PDL) (10 mg/ml; Sigma-Aldrich, Rehovot) in borate buffer (2.37 g borax and 1.55 g boric acid dissolved in 500 ml sterile water, pH 8.4) for 1 h, then rinsed thoroughly with sterile, glass-distilled water. Half of the medium was changed after 6 h in culture and every 2nd day thereafter, starting on day 2, for a total culture time of 10-14 days. […]

For IFN-γ: recombinant interferon-γ, the “IGF-I mRNA in microglia as a function of time” value [1] was “down-regulation of IGF-I”, the “TNF-α production by microglia as a function of time” value [1] was “transient increase in TNF-α production” and the “neurogenesis (GFP+/βIIIT+ cells) from NPCs co-cultured with treated microglia” value [2] was “increase in numbers of GFP^+/βIIIT^+ cells was dramatic”.
